# In patent US6080750A, “Pyrimidine compound and anti-rotavirus composition” (priority 1996, dated 2000):
# Like-named read-outs stand apart in the source and are kept apart here.
# What was measured:
# [1] = system: rotavirus SA-11 strain; assay: Determination of antiviral activity (50% plaque reduction method); format: cell-based, rotavirus SA-11 (in CV-1 green monkey kidney cells); settings: for antiviral index (ED50 /ID50): ED50 CV-1 cells / ID50 rotavirus SA-11; for IC50: 96 h, read-out: ID50 (50% plaque inhibition dose), rotavirus SA-11
# Protocol: Determination of activity of test compound against rotavirus and evaluation thereof
# rotavirus: To a liquid containing preserved rotavirus SA-11 strain was added trypsin (Sigma, acetylated trypsin type V-S) to 10 μg/ml and incubated at 37° C. for 30 minutes to activate the […], after which the culture was diluted to a concentration of 50 plaque forming units (PFU)/0.1 ml with Eagle's minimum essential medium (MEM) and used for the determination.
# (§1) cultured cell: CV-1 cells which are green monkey kidney cell line were cultured in MEM supplemented with 10% calf serum. The culture cells were prepared to a concentration of 4×10^5 cells/ml, plated on a 24 well microplate and cultured for 2 days before use for the determination.
# Activated rotavirus SA-11 […] were inoculated at 50 PFU/0.1 ml to CV-1 cells cultured in a monolayer on a 24 well microplate. The virus was allowed to adsorb to the cells in 1.5 hours at 37° C. and the surface layer of the cells was washed three times with MEM. Then, a multilayer agar medium (mixed medium of MEM, 3 μg/ml acetylated trypsin and agar at final concentration of 0.8%, all added at 45° C.) containing aliquot of test compounds was superposed on the cell layer. The cells were incubated at 37° C. for 4 days, immobilized with formalin, stained with a crystal violet solution and counted for plaque number.
# The antiviral activity was expressed by the concentration of the test compound (50% plaque inhibition dose: ID50 =μg/ml), which decreased plaques formed in the control cell culture without the test compound, by 50%.
# ED50 value was divided by ID50 value and the obtained value was used as an antiviral index for the determination of selective anti-rotaviral activity on infected cells in comparison to that on normal cells (host cells).
# [2] = Determination of cytotoxicity (50% cell growth inhibition effect); format: cell-based, green monkey; settings: monkey; CV-1 cells, 2 days, cell count; read-out: ED50 (50% cell growth inhibition effect dose), CV-1 cells
# Protocol: as §1
# CV-1 cells were prepared to a concentration of 4×10^4 cells/ml with MEM containing 10% calf serum and plated on a 24 well microplate, which was followed by culture for 2 days. The culture solution thereof was changed to MEM containing 10% calf serum and serially diluted test compounds at various concentrations, and the cells were cultured for 2 days. The cells were prepared into a homogeneous single cell suspension using 0.1% crude trypsin, and counted with a Coulter counter Model D (Coulter Electronics Ltd., England).
# The 50% cell growth inhibition effect dose (ED50 =μg/ml) was expressed by the concentration of the test compound, which decreased cell numbers in the control cell culture without the test compound, by 50%.
# [3] = system: male ICR mice; assay: Toxicity test (mouse acute toxicity, minimum lethal dose); format: in vivo; settings: oral (po), male ICR mice fasted overnight, survival 14 days
# Text: A test compound was orally administered to male ICR mice (weight 25-35 g) fasted overnight, and survival thereof was monitored for 14 days.
# [4] = in Chlorocebus sabaeus, rotavirus SA-11 50 PFU, CV-1 cells, 37° C., 4 days, plaque count
# [5] = Rotavirus, CV-1, in Chlorocebus sabaeus
Compound,antiviral index (ED50 /ID50) [1],"IC50 [1, 4]",CC50 at 48 h [2],mouse acute toxicity [lethal dose] (minimum lethal dose) [3],"IC50 [1, 5]"
"Nc1nc(Cl)c(N)c(NCCCO)n1 [compound No. 113, 6-Chloro-2,5-diamino-4-[(3-hydroxypropyl)amino]pyrimidine]",> 38,2.6 µg/mL,> 100 µg/mL,> 1000 mg/kg,–
Nc1c(Cl)ncnc1NCC1(CO)CCC1 [compound 18],–,–,–,> 500 mg/kg,–
"CC(C)(CO)CNc1cc(Cl)nc(N)n1 [compound No. 20, 2-Amino-6-chloro-4-[(3-hydroxy-2,2-dimethylpropyl)amino]pyrimidine]",> 9.5,10.5 µg/mL,> 1 µg/mL,–,–
"Nc1ncc(Br)c(NCC2(CO)CCC2)n1 [compound No. 6, 2-Amino-5-bromo-4-[[(1-hydroxymethyl-1-cyclobutyl)methyl]amino]pyrimidine]",–,2.9 µg/mL,–,> 500 mg/kg,–
Nc1nccc(NCC2(CO)CC(OCc3ccccc3)C2)n1 (centres unmarked) [compound No. 3],–,12.6 µg/mL,–,–,–
CCC(CC)(CO)CNc1cc(Cl)nc(N)n1 [compound 23],23,3.5 µg/mL,80 µg/mL,–,–
CC(C)(CO)CNc1nc(N)nc(Cl)c1N [compound 24],51.1,1.1 µg/mL,56.2 µg/mL,–,–
Nc1nc(Cl)cc(NCC2(CO)CC(c3ccccc3)C2)n1 (centres unmarked) [compound 47],–,–,–,> 500 mg/kg,–
Nc1ncc(Br)c(NCC2(CO)CC(CCc3ccccc3)C2)n1 (centres unmarked) [compound No. 7],–,–,–,> 500 mg/kg,–
Nc1nc(Cl)cc(NCC2(O)CCC2)n1 [compound 28],> 10,–,> 30 µg/mL,–,3 µg/mL
Nc1nccc(NCC2(CO)CC(CCc3ccccc3)C2)n1 (centres unmarked) [compound No. 5],–,–,–,> 500 mg/kg,–
COc1cc(NCC2(CO)CCC2)nc(N)n1 [compound 86],–,2.2 µg/mL,–,–,–
"Nc1nc(Cl)cc(NCC2(CO)CCC2)n1 [compound No. 35, 2-Amino-6-chloro-4-[[(1-hydroxymethyl-1-cyclobutyl)methyl]amino]-pyrimidine]",–,7.8 µg/mL,–,> 500 mg/kg,–
Nc1nc(O)c(N)c(NCC2(CO)CC2)n1 [compound 104],–,0.6 µg/mL,–,> 1000 mg/kg,–
Nc1nc(Cl)c(N)c(NCC2(CO)CCC2)n1 [compound 59],2,1.9 µg/mL,3.6 µg/mL,> 500 mg/kg,–
Nc1nc(Cl)c(N)c(NCC2(CO)CC2)n1 [compound 58],> 67,–,> 100 µg/mL,> 1000 mg/kg,1.5 µg/mL
CCC(CC)(CO)CNc1nc(N)nc(Cl)c1N [compound 25],150.0,0.2 µg/mL,30 µg/mL,–,–
Nc1nc(Cl)cc(NCC2(CO)CC(Cc3ccccc3)C2)n1 (centres unmarked) [compound 43],–,–,–,> 500 mg/kg,–
Nc1nc(Cl)cc(NCC2(CO)CC(OCc3ccccc3)C2)n1 (centres unmarked) [compound 39],–,–,–,> 500 mg/kg,–
Nc1nc(Cl)cc(NCC2(CO)CCCC2)n1 [compound 48],–,–,–,> 500 mg/kg,–
Nc1nc(Cl)cc(NCC2(CO)CC(CCc3ccccc3)C2)n1 (centres unmarked) [compound 44],–,–,–,> 500 mg/kg,–
"Cl.Cl.Nc1nc(Cl)c(N)c(NCCO)n1 [compound No. 112, 6-Chloro-2,5-diamino-4-[(2-hydroxyethyl)amino]pyrimidine dihydrochloride]",–,–,–,> 1000 mg/kg,–
